Assay results from paper PMC11515993, “ZSTK474 targeting PIK3R3 inhibits the Wilms’ tumor through G0 / G1 phase arrest” (PLOS ONE, 2024).

Legend:
[1] = test system: WT-CLS1 cells; test: CCK-8 cell proliferation assay (IC50); assay type: cell-based; conditions: 48-hour treatment
Method: (§1) The assessment of cell proliferation was conducted utilizing the CCK-8 assay sourced from MCE (HY-K0301, USA). Following detachment utilizing 0.25% trypsin, WiT49 (2.5×10^3) and WT-CLS1 (3×10^3) cells were cultured in 96-well plates. Following adhesion, cells were subjected to varying doses of ZSTK474 (0–32 μM) for a duration of 48 hours. Following a 2-hour incubation with culture medium (90 μL) and CCK-8 reagent (10 μL) at 37°C, the measurement of the absorbance at 450 nm was conducted to measure the IC50 value of ZSTK474. Following this, the cells were treated with ZSTK474 at concentrations equivalent to 1/2, 1, and 2 times the IC50 value. Growth curves were subsequently plotted at 0, 24, 48, and 72 hours post-incubation.

[2] = test system: WiT49 cells; test: CCK-8 cell proliferation assay (IC50); assay type: cell-based; conditions: 48-hour treatment
Method: as §1

[3] = test system: WiT49 and WT-CLS1 cells; test: CCK-8 growth curves; assay type: cell-based; conditions: 1/2, 1 and 2 times IC50; 0, 24, 48, 72 hours
Method: as §1

[4] = In vivo safety in WiT49 tumor-bearing mice (body weight, blood and serum tests, organ HE staining); conditions: two weeks; for ALT / AST / BUN / CK / CRE: tumor-bearing nude mice
Method: (§2) The in vivo experiments were approved by the Institutional Animal Care and Use Committee of Chongqing Medical University (approval number: CHCMU-IACUC20220323001). After being sourced from the Animal Research Center at Chongqing Medical University, BALB/C nude mice (male, 3 weeks old) were housed in stainless steel cages in a ventilated animal room. The room temperature in the housing facility was maintained at 24°C, with a relative humidity of 60% and a 12-h light/dark cycle. Distilled water and sterilized food were available ad libitum. The mice were acclimated for a week. Injection of 2×10^6 WiT49 cells, suspended in 100μL of DMEM, into the left axilla of the mice was used to induce subcutaneous nephroblastoma xenograft tumors. Once the tumor volume reached 90–100 mm^3, the mice were segregated into four groups (n = 6 in each group). Except for one control group that was given PBS, three groups were given daily doses of ZSTK474 (MCE, China) at 25, 50, and 100 mg/kg over a two-week period. Tumor size and body weight of tumor-bearing mice were monitored throughout the study, and no mice died before meeting criteria for euthanasia. The mice were anaesthetised using 3% isoflurane, blood was taken from the eye socket and then executed by decapitation. Standard blood tests and serum analyses were performed to evaluate toxicity, focusing on liver, cardiac, and renal markers for tumor-bearing mice of each group. Tumor weights were recorded, and samples of various organs and tumors were collected for further analysis.
Fresh tumor samples were fixed in paraformaldehyde for 72 hours. The samples were processed through paraffin embedding and subsequently sectioned at a thickness of 4 μm. The subsequent procedures comprised hydration with xylene and alcohol, staining with hematoxylin and eosin, and dehydration through immersion in graded alcohol and xylene. Subsequently, images were acquired using light microscopy from Nikon, Japan.

[5] = test system: WiT49 subcutaneous nephroblastoma xenograft tumors; test: Subcutaneous nephroblastoma xenograft tumor growth and tumor immunofluorescence; assay type: in vivo, BALB/C nude mice
Method: as §2, with “analysis. Following fixation in 4% paraformaldehyde for more than 24 hours, tumor tissues underwent dehydration and paraffin embedding and were then sectioned into 4-μm slices. The sections were then subjected to thermal antigen retrieval by treating them with sodium citrate buffer and subsequently exposing them to microwave radiation. Following dewaxing, the sections were blocked using 0.5% bovine serum albumin (BSA) and left to incubate with primary antibodies overnight at 4°C. […]” for “analysis.”

[6] = test system: WiT49 and WT-CLS1 cells; test: Wound healing (scratch) cell migration assay; assay type: cell-based; conditions: 0, 24, 48 hours, serum-free medium
Method: WT cells (2×10^5 cells per well) were cultured in 6-well plates in a 5% CO2 environment at 37°C until confluence was achieved. A consistent wound was generated on the cellular surface, and any detached cells were eliminated using PBS. After this, WiT49 and WT-CLS1 cells were subjected to varying concentrations of ZSTK474 in a serum-free DEME medium. After a 48-hour incubation, cell migration was assessed at 0, 24, and 48 hours under a Nikon microscope. The scratch width measurement was performed using ImageJ.

[7] = test system: WiT49 and WT-CLS1 cells; test: Transwell cell invasiveness assay; assay type: cell-based; conditions: 24 and 48 hours
Method: The assessment of cell invasiveness was performed through a Transwell assay on plates coated with matrix gel. When seeded on plates, WiT49 and WT-CLS1 cells were positioned in the […] with a 10% FBS medium, while different concentrations of ZSTK474 in a serum-free medium were placed in the upper chamber. Cells were fixed and stained with crystal violet after 24 and 48 hours of treatment. Cell invasiveness was quantified using ImageJ software while observing under a light microscope.

[8] = test system: WT-CLS1 cells; test: Annexin V apoptosis flow cytometry; assay type: cell-based; conditions: WT-CLS1, 48 hours, IC50 dose
Method: (§3) The assessment of apoptosis was carried out using the Annexin V Apoptosis Kit (BDPharmingen, 5565547, USA). WiT49 and WT-CLS1 cells were cultured in 6-well plates for 12 hours. Subsequently, they were exposed to different concentrations of ZSTK474 for 48 hours and then analyzed using flow cytometry. FlowJo 10.8.1 software was utilized for data analysis.

[9] = test system: WiT49 cells; test: Annexin V apoptosis flow cytometry; assay type: cell-based; conditions: WiT49, 48 hours, IC50 dose
Method: as §3

[10] = test system: WiT49 and WT-CLS1 cells; test: TUNEL assay; assay type: cell-based; conditions: 48 hours, low, medium and high dose
Method: In WT cells, apoptosis-induced DNA damage was identified through TUNEL staining in the low, medium, and high-dose intervention groups. After a 12-hour incubation in 24-well plates, cells were treated with varying concentrations of ZSTK474 for 48 hours. The cells were then subjected to TUNEL staining according to the manufacturer’s instructions. The cell nuclei were counterstained with DAPI and then mounted utilizing an anti-fade mounting medium. The Nikon C2 microscope was employed for image acquisition.

[11] = test system: WiT49 and WT-CLS1 cells; test: Cell cycle assay by flow cytometry; assay type: cell-based; conditions: different concentrations, 48 hours
Method: The assessment of cell cycle progression after exposure to different concentrations of ZSTK474 was conducted using the BD Cell Cycle Assay Kit from Dojindo, Japan. In accordance with standardized procedures, WT-CLS1 and WiT49 cells were cultured for 48 hours, then fixed in 75% ethanol for an additional 48 hours. Following this, the cells were centrifuged, resuspended twice in PBS, and stained with propidium iodide and RNase at 37°C for 30 minutes. Lastly, cell cycle distribution was assessed through flow cytometry.

[12] = test system: WiT49 and WT-CLS1 cells; test: Western blot of treated WT cells; assay type: cell-based
Method: The protein lysis solution containing 1% PMSF was used to lyse both WiT49 and WT-CLS1 cells treated with ZSTK474. After centrifugation at 12000g for 20 minutes, the protein content was quantified using a BCA assay kit (Thermo, China). Subsequently, 10 μg of protein underwent electrophoresis on a 6%-12.5% SDS-PAGE gel (EpiZyme, China) and was then transferred to a PVDF membrane (Millipore, ISEQ00010, USA) via semi-dry electrotransfer. After three TBST washes, the PVDF membranes were exposed to primary antibodies (Akt, MMP2, MMP9, PI3K, p-PI3K, p-Akt, PCNA, VEGF, P21, CyclinD, CDK4, GAPDH from ZENBIO, Chengdu, China; PIK3R3 from Proteintech, Wuhan, China) overnight at a 1:1000 dilution and 4°C. After being washed three times in TBST, the PVDF membrane was incubated with secondary antibodies (1:20000, ZENBIO, China) for one hour at room temperature. The Bio-RAD analyzer and Image Lab software were utilized for imaging and analysis.

[13] = test system: WT-CLS1 cells; test: RT-PCR of NRG4, CDKN1A, FGF18, PIK3R3, PDGFRB; assay type: cell-based; conditions: among the five genes
Method: Total RNA was extracted from WiT49 and WT-CLS1 cells utilizing TRIzol reagent (Invitrogen, CA, USA) and subsequently subjected to RT-PCR following the protocols of RTMasterMix (MCE, NJ, USA). Utilizing the SYBR Green RT-PCR Master Mix from MCE in NJ, USA, mRNA quantification was conducted on the Bio-Rad CFX ConnectTM Real-Time System. The relative expressions of NRG4, CDKN1A, FGF18, PIK3R3, and PDGFRB were measured using GAPDH as the internal reference gene.

[14] = set-up: method as in PMID 16622124; conditions: chronic oral administration, 800 mg/kg, cited from earlier work

For `FC(F)c1nc2ccccc2n1-c1nc(N2CCOCC2)nc(N2CCOCC2)n1` [ZSTK474], which IC50 [1] is on record?
Its IC50 is 2.51 µM.

What about the IC50 [2] of the same compound?
Its IC50 is 2 µM.

What about the “cell growth (proliferation curve)” value [3] of the same compound?
Its value is “dose-dependent suppression of cell growth”.

And the ALT ([4]; 25 mg/kg daily)?
Its ALT is 69.7(44.7–96.9).

And the AST ([4]; 25 mg/kg daily)?
Its AST is 117.5 (95.8–153.7).

And the BUN ([4]; 25 mg/kg daily)?
Its BUN is 8.3(5.6–10.6).

And the CK ([4]; 25 mg/kg daily)?
The CK was 1084.2 (1029.0–1145.0).

What about the CRE ([4]; 25 mg/kg daily) of the same compound?
The CRE was 13.0(11.0–15.0).

And the ALT ([4]; 50 mg/kg daily)?
The ALT was 62.6(48.1–88.2).

And the AST ([4]; 50 mg/kg daily)?
Its AST is 126.1 (99.4–174.1).

What about the BUN ([4]; 50 mg/kg daily) of the same compound?
The BUN was 7.7(5.1–10.8).

And the CK ([4]; 50 mg/kg daily)?
Its CK is 1009.5 (793.0–1141.0).

What about the CRE ([4]; 50 mg/kg daily) of the same compound?
The CRE was 12.7(11.0–14.0).

What about the ALT ([4]; 100 mg/kg daily) of the same compound?
The ALT was 60.6(50.4–76.5).

What about the AST ([4]; 100 mg/kg daily) of the same compound?
The AST was 130.4 (97.7–173.1).

And the BUN ([4]; 100 mg/kg daily)?
Its BUN is 7.3(5.1–10.1).

And the CK ([4]; 100 mg/kg daily)?
The CK was 952.5 (637.0–1135.0).

What about the CRE ([4]; 100 mg/kg daily) of the same compound?
The CRE was 12.5(10.0–15.0).

What about the “hematological indices and organ pathology examination vs control” value ([4]; 25, 50, 100 mg/kg daily) of the same compound?
Its value is “no notable variances”.

And the “post-administration body weight changes vs PBS control” value ([4]; 25, 50, 100 mg/kg daily)?
The value was “no significant differences”.

What about the “levels of PCNA, MMP2, MMP9 and VEGF in tumor tissues (immunofluorescence)” value ([5]; 25, 50 and 100 mg/kg) of the same compound?
Its value is “markedly reduced”.

And the “subcutaneous tumor volume vs control” value ([5]; day 5, high-dose treatment group)?
The value was “initial reductions in tumor volume”.

What about the “subcutaneous tumor volume vs control” value ([5]; day 11, treatment group) of the same compound?
The value was “notable reduction in tumor volumes”.

What about the “cell migration (scratch assay)” value [6] of the same compound?
Its value is “reduced migration rates”.

And the “invasion capacity (Transwell)” value [7]?
The value was “decrease in invasion capacity”.

What about the “rise in apoptotic cells compared to the controls” value [8] of the same compound?
Its value is “below 10%”.

What about the “rise in apoptotic cells compared to the controls” value [9] of the same compound?
The value was 20%.

And the “apoptosis-induced DNA damage (TUNEL)” value [10]?
Its value is “late apoptotic DNA damage response”.

And the “percentage of cells in the G0/G1 phase” value [11]?
The value was “significant rise in the percentage of cells in the G0/G1 phase”.

What about the “expression levels of PCNA, MMP2, MMP9 and VEGF (Western blot)” value ([12]; WT cells) of the same compound?
The value was “lowered expression levels”.

And the “p-PI3K/PI3K and p-Akt/Akt (Western blot)” value ([12]; WT cells)?
The value was “reduced levels”.

What about the “P21 expression (Western blot)” value ([12]; WiT49 and WT-CLS1) of the same compound?
Its value is “elevation in P21 expression”.

And the “cyclin D and CDK4 levels (Western blot)” value ([12]; WiT49 and WT-CLS1)?
The value was “reduction in cyclin D and CDK4 levels”.

And the “PIK3R3 RNA level (RT-PCR)” value [13]?
Its value is “most pronounced downregulation”.

What about the weight loss ([14]; by day 28) of the same compound?
Its weight loss is 14%.

What about the dermal toxicity ([14]; more than 28 days) of the same compound?
Its dermal toxicity is “did not result in any dermal toxicity”.

And the “toxic damage to vital organs” value ([14]; more than 28 days)?
Its value is “no evidence of toxic damage to vital organs”.
